Columns and labels:
[1] = tested on: Salmonella typhi, ATCC # 6539; experiment: Bactericidal efficacy vs. chlorine standard (available chlorine equivalence); format: cell-based; set-up: key to Growth in Test Tube 8 / Growth in Test Tube 9 / Growth in Test Tube 10 / Growth in Test Tube 1 / Growth in Test Tube 2 / Growth in Test Tube 3 / Growth in Test Tube 4 / Growth in Test Tube 5 / Growth in Test Tube 6 / Growth in Test Tube 7: (+) = growth; (−) = no growth; settings: S. typhi
Description: (§1) Example 2 compared the bactericidal efficacy of the thickened quaternary ammonium compound sanitizer composition (Formula 7) to that of a known concentration of chlorine. […] The mix order for Formula 7 is as follows: (1) water; (2) propylene glycol; (3) LonzaGuard; (4) FD&C Red #40; (5) Methocel; (6) Triethanolamine; and (7) Ethanol. Formula 7 and the chlorine standard were tested against Staphylococcus aureus, ATCC # 6538 and Salmonella typhi, ATCC # 6539. The chlorine standard was prepared by adding 0.1 ml of a 5% NaOCl stock solution (refrigerated Clorox® bleach) to 100 ml of sterile phosphate buffer solution to create a 50–55 ppm available chlorine concentration.
(§2) For the chlorine standard test, 0.05 ml of the test culture was added to a test tube with 50 ppm available chlorine. The test tube was placed in a 20° C. water bath. After 1 minute, the solution was transferred to test tube 1 with 10 ml of Fluid Thioglycollate medium (commercially available from Becton Dickinson (Sparks, Md.)). These steps were repeated for nine test tubes.
(§3) For Formula 7, the same series of test tubes used for the available chlorine test was used to test the quaternary ammonium compound sanitizer composition. 0.05 ml of test culture was added to Formula 7. The test tube was placed in a 20° C. water bath. After 1 minute, the solution was transferred to a test tube with 10 ml of Letheen broth in place of the Fluid Thioglycollate medium.
(§4) The formulas in Table 4 were tested with Staphylococcus aureus, ATCC # 6538 and Salmonella typhi, ATCC # 6539. […] A “+” sign means that the test tube had bacteria growth.
(§5) Equivalency is met when the sample tubes have an absence of growth in as many tubes as the chlorine standard.

[2] = tested on: Staphylococcus aureus, ATCC # 6538; experiment: as above; format: cell-based; set-up: key to Growth in Test Tube 8 / Growth in Test Tube 9 / Growth in Test Tube 10 / Growth in Test Tube 1 / Growth in Test Tube 2 / Growth in Test Tube 3 / Growth in Test Tube 4 / Growth in Test Tube 5 / Growth in Test Tube 6 / Growth in Test Tube 7: (+) = growth; (−) = no growth; settings: S. aureus
Description: as §1, §2, §3, §4, §5

[3] = text does not separate the organisms

[Na+].[O-]Cl [NaOCl]
growth in tubes 3–10: Growth in tubes 1–10 [1, 3] | Growth in tubes 1–10 [2, 3]
+: Growth in Test Tube 3 ([1]; 1 minute, 20° C.) | Growth in Test Tube 4 ([1]; 1 minute, 20° C.) | Growth in Test Tube 5 ([1]; 1 minute, 20° C.) | Growth in Test Tube 6 ([1]; 1 minute, 20° C.) | Growth in Test Tube 7 ([1]; 1 minute, 20° C.) | Growth in Test Tube 8 ([1]; 1 minute, 20° C.) | Growth in Test Tube 9 ([1]; 1 minute, 20° C.) | Growth in Test Tube 10 ([1]; 1 minute, 20° C.) | Growth in Test Tube 3 ([2]; 1 minute, 20° C.) | Growth in Test Tube 4 ([2]; 1 minute, 20° C.) | Growth in Test Tube 5 ([2]; 1 minute, 20° C.) | Growth in Test Tube 6 ([2]; 1 minute, 20° C.) | Growth in Test Tube 7 ([2]; 1 minute, 20° C.) | Growth in Test Tube 8 ([2]; 1 minute, 20° C.) | Growth in Test Tube 9 ([2]; 1 minute, 20° C.) | Growth in Test Tube 10 ([2]; 1 minute, 20° C.)
−: Growth in Test Tube 1 ([1]; 1 minute, 20° C.) | Growth in Test Tube 2 ([1]; 1 minute, 20° C.) | Growth in Test Tube 1 ([2]; 1 minute, 20° C.) | Growth in Test Tube 2 ([2]; 1 minute, 20° C.)

Reference: patent US7112559B1, “Thickened quaternary ammonium compound sanitizer” (Ecolab Inc., priority 2005, dated 2006)
